From patent US9980486B2, “Herbicidal quinolines” (Syngenta Participations AG, priority 2014, dated 2018)

Key:
Test in all cases: Experiment B1 glasshouse herbicide test, pre- and post-emergence, percentage damage
Format in all cases: in vivo
Settings in all cases: 1000 g/h, evaluated after 13 days
[1] = system: Ipomoea hederacea (IPOHE)
Procedure: (§1) Seeds of a variety of test species are sown in standard soil in pots (Lolium perenne (LOLPE), Solanum nigrum (SOLNI), Amaranthus retoflexus (AMARE), Setaria faberi (SETFA), Echinochloa crus-galli (ECHCG), Ipomoea hederacea (IPOHE)). After cultivation for one day (pre-emergence) or after 8 days cultivation (post-emergence) under controlled conditions in a glasshouse (at 24/16° C., day/night; 14 hours light; 65% humidity), the plants are sprayed with an aqueous spray solution derived from the formulation of the technical active ingredient in acetone/water (50:50) solution containing 0.5% Tween 20 (polyoxyethelyene sorbitan monolaurate, CAS RN 9005-64-5). […] The test plants are then grown in a glasshouse under controlled conditions in a glasshouse (at 24/16° C., day/night; 14 hours light; 65% humidity) and watered twice daily. After 13 days for pre and post-emergence, the test is evaluated for the percentage damage caused to the plant. The biological activities are shown in the following table on a five point scale (5=80-100%; 4=60-79%; 3=40-59%; 2=20-39%; 1=0-19%).

[2] = system: Amaranthus retoflexus (AMARE)
Procedure: as §1

Solanum nigrum (SOLNI) = system: Solanum nigrum (SOLNI)
Procedure: as §1

[3] = system: Echinochloa crus-galli (ECHCG)
Procedure: as §1

Lolium perenne (LOLPE) = system: Lolium perenne (LOLPE)
Procedure: as §1

Setaria faberi (SETFA) = system: Setaria faberi (SETFA)
Procedure: as §1

[4] = POST Application (post-emergence, after 8 days cultivation)
[5] = PRE Application (pre-emergence, after cultivation for one day)

Structure (SMILES)	percentage damage caused to the plant, five point scale, IPOHE [1, 4]	percentage damage caused to the plant, five point scale, IPOHE [1, 5]	percentage damage caused to the plant, five point scale, AMARE [2, 4]	percentage damage caused to the plant, five point scale, AMARE [2, 5]	percentage damage caused to the plant, five point scale, SOLNI (Solanum nigrum (SOLNI); [4])	percentage damage caused to the plant, five point scale, SOLNI (Solanum nigrum (SOLNI); [5])	percentage damage caused to the plant, five point scale, ECHCG [3, 4]	percentage damage caused to the plant, five point scale, ECHCG [3, 5]	percentage damage caused to the plant, five point scale, LOLPE (Lolium perenne (LOLPE); [4])	percentage damage caused to the plant, five point scale, LOLPE (Lolium perenne (LOLPE); [5])	percentage damage caused to the plant, five point scale, SETFA (Setaria faberi (SETFA); [4])	percentage damage caused to the plant, five point scale, SETFA (Setaria faberi (SETFA); [5])
CSc1c(C(=O)Nc2nnnn2C)cc2cccnc2c1-c1ccccc1 [Compound 1.032, 7-methylsulfanyl-N-(1-methyltetrazol-5-yl)-8-phenyl-quinoline-6-carboxamide]	5 (5=80-100%)	5 (5=80-100%)	5 (5=80-100%)	5 (5=80-100%)	5 (5=80-100%)	5 (5=80-100%)	5 (5=80-100%)	5 (5=80-100%)	5 (5=80-100%)	5 (5=80-100%)	5 (5=80-100%)	5 (5=80-100%)
COc1ccc(-c2c(C)c(C(=O)Nc3nnnn3C)cc3cccnc23)cc1 [Compound 1.034]	5 (5=80-100%)	5 (5=80-100%)	5 (5=80-100%)	5 (5=80-100%)	5 (5=80-100%)	5 (5=80-100%)	5 (5=80-100%)	5 (5=80-100%)	4 (4=60-79%)	5 (5=80-100%)	5 (5=80-100%)	5 (5=80-100%)
Cc1c(C(=O)Nc2nnnn2C)cc2cccnc2c1-c1ccc(Cl)cc1 [Compound 1.036]	5 (5=80-100%)	5 (5=80-100%)	5 (5=80-100%)	5 (5=80-100%)	5 (5=80-100%)	5 (5=80-100%)	5 (5=80-100%)	5 (5=80-100%)	4 (4=60-79%)	4 (4=60-79%)	5 (5=80-100%)	5 (5=80-100%)
Cc1ccc(-c2c(C(F)(F)F)c(C(=O)Nc3nnnn3C)cc3cccnc23)cc1 [Compound 1.017]	5 (5=80-100%)	5 (5=80-100%)	5 (5=80-100%)	5 (5=80-100%)	5 (5=80-100%)	5 (5=80-100%)	5 (5=80-100%)	5 (5=80-100%)	4 (4=60-79%)	4 (4=60-79%)	5 (5=80-100%)	5 (5=80-100%)
Cn1nnnc1NC(=O)c1cc2cc(F)cnc2c(-c2ccccc2)c1C(F)(F)F [Compound 1.007, 3-fluoro-N-(1-methyltetrazol-5-yl)-8-phenyl-7-(trifluoromethyl)quinoline-6-carboxamide]	5 (5=80-100%)	5 (5=80-100%)	5 (5=80-100%)	5 (5=80-100%)	5 (5=80-100%)	5 (5=80-100%)	5 (5=80-100%)	5 (5=80-100%)	5 (5=80-100%)	5 (5=80-100%)	5 (5=80-100%)	5 (5=80-100%)
Cc1c(C(=O)Nc2nnnn2C)cc2cccnc2c1-c1ccc(S(C)(=O)=O)cc1 [Compound 1.031, 7-methyl-8-(4-methylsulfonylphenyl)-N-(1-methyltetrazol-5-yl)quinoline-6-carboxamide]	5 (5=80-100%)	5 (5=80-100%)	5 (5=80-100%)	5 (5=80-100%)	5 (5=80-100%)	5 (5=80-100%)	5 (5=80-100%)	5 (5=80-100%)	5 (5=80-100%)	5 (5=80-100%)	5 (5=80-100%)	5 (5=80-100%)
O=C(Nc1nnnn1-c1ccccc1)c1cc2cccnc2c(-c2ccccc2)c1C(F)(F)F [Compound 1.033]	5 (5=80-100%)	3 (3=40-59%)	5 (5=80-100%)	5 (5=80-100%)	5 (5=80-100%)	4 (4=60-79%)	2 (2=20-39%)	1 (1=0-19%)	1 (1=0-19%)	1 (1=0-19%)	2 (2=20-39%)	1 (1=0-19%)
Cc1ccc2cc(C(=O)Nc3nnnn3C)c(C)c(-c3ccc(S(C)(=O)=O)cc3)c2n1 [Compound 1.038]	5 (5=80-100%)	4 (4=60-79%)	5 (5=80-100%)	5 (5=80-100%)	5 (5=80-100%)	5 (5=80-100%)	5 (5=80-100%)	5 (5=80-100%)	5 (5=80-100%)	4 (4=60-79%)	5 (5=80-100%)	5 (5=80-100%)
CCn1nnnc1NC(=O)c1cc2cccnc2c(-c2ccccc2)c1C(F)(F)F [Compound 1.002]	5 (5=80-100%)	5 (5=80-100%)	5 (5=80-100%)	5 (5=80-100%)	5 (5=80-100%)	5 (5=80-100%)	5 (5=80-100%)	5 (5=80-100%)	5 (5=80-100%)	5 (5=80-100%)	5 (5=80-100%)	5 (5=80-100%)
CCCn1nnnc1NC(=O)c1cc2cccnc2c(-c2ccccc2)c1C(F)(F)F [Compound 1.003]	4 (4=60-79%)	2 (2=20-39%)	5 (5=80-100%)	5 (5=80-100%)	5 (5=80-100%)	5 (5=80-100%)	3 (3=40-59%)	5 (5=80-100%)	1 (1=0-19%)	1 (1=0-19%)	2 (2=20-39%)	1 (1=0-19%)
